Measured values from patent publication US20160016989A1, “Synthetic Polymers Containing Amino Acid Side Chains” (CHIMEROCHEM LLC, priority 2013, published 2016).

Legend:
[1] = tested on: VMCs from the left anterior descending, circumflex, and right coronary arteries; assay: Calcium signal (fluo 3 fluorescence) and contractility of single coronary artery VMCs; assay type: cell-based, rhesus monkeys; settings: images at 1 minute and subsequent time points
Text: Single VMCs from the left anterior descending, circumflex, and right coronary arteries of adult rhesus monkeys are isolated and studied both as freshly dispersed and as primary cultures. The short-term primary cultured cells (never passaged) maintain the characteristics of the source tissue for 2 to 3 weeks, including contraction, relaxation, receptors, and membrane electrical properties. VMCs are dissociated with collagenase and protease enzymes in a potassium glutamate solution (KG) that prevents loading with Na^+, Ca2^+, or Cl^− and results in a high proportion of viable, contracting cells (Miyagawa et al, Am J Physiol 272:H2645-2654, 1997; Hermsmeyer et, Art Thromb Vasc Biol, 24:955-961, 2004). […]
Freshly dispersed or primary cultured VMCs on glass coverslips are placed in a chamber of laminar flow design on an Axiovert inverted fluorescence microscope and observed with a Zeiss Plan Neofluar 25X/0.80 water immersion objective. Fluorescence intensity is measured with high sensitivity calibrated video sensor and recorded digitally via computer acquisition and management program. […] Fluorescent images are taken at 1 minute and subsequent time points from which light intensity is equated to changes in calcium signal (fluorescence) and cell contractility.

[2] = tested on: Histidine specific antibody (polyclonal IgG ab6442 from ABCAM); assay: Native polyacrylamide gel shift with Histidine specific antibody; assay type: binding; settings: native 12% polyacrylamide gel; compared to 20-mer polydT controls
Experimental: Example using monomer to produce a H-tag. Six His side chain monomers (H) as described in example 1 c2 are added during oligonucleotide synthesis to the 5′ position of a 20mer polydT, such that the final sequence is 5′HHH HHH TTT TTT TTT TTT TTT TTT TT3′. H is used at a concentration of 0.1M in acetonitrile for synthesis. The chimeric polymer is synthesized according to manufacturer's recommendations for the ABI Expedite synthesizer. After deprotection the H-tagged polydT was incubated with Histidine specific antibody (polyclonal IgG ab6442 from ABCAM). A control sample of 20-mer polydT was also incubated with the Histidine specific antibody. A native 12% polyacrylamide (20:1 acrylamide:bis) was loaded with 4 samples: 20-mer polydT, 20-mer polydT+Histidine specific antibody, His-tagged 20-mer polydT, His-tagged 20-mer polydT+Histidine specific antibody.

Row | Compound | calcium signal (fluorescence) ([1]; individual VMC loaded with 3 μM fluo 3) | cell contractility ([1]; individual VMC) | gel shift on addition of the Histidine specific antibody [2]
1 | NC(=O)CC[C@@H]1NC(=O)[C@H](Cc2ccccc2)NC(=O)[C@H](Cc2ccc(O)cc2)NC(=O)[C@@H](N)CSSC[C@@H](C(=O)N2CCC[C@H]2C(=O)N[C@@H](CCCN=C(N)N)C(=O)NCC(N)=O)NC(=O)[C@H](CC(N)=O)NC1=O [arginine vasopressin] | affect | affect | 
2 | 5′HHH HHH TTT TTT TTT TTT TTT TTT TT3′ [His-tagged 20-mer polydT] |  |  | gel shift
